Data from patent publication US20050148633A1 (priority 2003, published 2005).

System: IL-2 production
Test: Inhibition of IL-2 production in PHA-activated Jurkat cells (ELISA)
Type: cell-based
Conditions: Homo sapiens
Procedure: Jurkat cells were placed in a 96 well plate (0.5 million cells per well in 1% FBS medium) then test compounds of this invention were added at different concentrations. After 10 minutes, the cells were activated with PHA (final concentration 2.5 μg/mL) and incubated for 20 hours at 37° C. under CO2. The final volume was 200 μL. Following incubation, the cells were centrifuged and the supernatants collected and stored at −70° C. prior to assaying for IL-2 production. A commercial ELISA kit (IL-2 Eli-pair, Diaclone Research, Besancon, France) was used to detect production of IL-2, from which dose response curves were obtained. The IC50 value was calculated as the concentration at which 50% of maximum IL-2 production after stimulation was inhibited versus a non-stimulation control.

[1] = PHA 2.5 μg/mL, 20 hours, value bins

SMILES | IC50 [1] [nM] | IC50 (PHA, bin >1 μM) [nM] | IC50 (PHA, bin 500 nM-1 μM) [nM]
Cc1cc(C(=O)Nc2ccc(-c3cc(C(F)(F)F)ccc3C(F)(F)F)cc2)n(C)n1 [Compound 40, 1,3-Dimethyl-1H-pyrazol-5-carboxylic acid (2′,5′-bis-trifluoromethyl-biphenyl-4-yl)-amide] | 100 to 500 |  | 
Cc1nnsc1C(=O)Nc1ccc(-c2cc(C(F)(F)F)ccc2Cl)cc1 [Compound 27, 4-Methyl-[1,2,3]thiadiazole-5-carboxylic acid (2′-chloro-5′-trifluoromethyl-biphenyl-4-yl)-amide] | < 100 |  | 
O=C(Nc1ccc(-c2ccccc2C(F)(F)F)cc1)c1cccs1 [Compound 9, Thiophene-2-carboxylic acid (2′-trifluoromethyl-biphenyl-4-yl)-amide] |  | > 1000 | 
Cc1c(Cl)cccc1C(=O)Nc1ccc(-c2cc(C(F)(F)F)ccc2C(F)(F)F)cc1 [Compound 54, N-(2′,5′-bis-trifluoromethyl-biphenyl-4-yl)-2-methyl-3-chlorobenzamide] | < 100 |  | 
O=C(Nc1ccc(-c2c(F)cccc2C(F)(F)F)cc1)c1cccc(F)c1F [Compound 22, 2,3-Difluoro-N-(2′-fluoro-6′-trifluoromethyl-biphenyl-4-yl)-benzamide] | 100 to 500 |  | 
Cn1cncc1C(=O)Nc1ccc(-c2cc(C(F)(F)F)ccc2C(F)(F)F)cc1 [Compound 62, 1-methyl-1H-imidazole-5-carboxylic acid (2′,5′-bis-trifluoromethyl-biphenyl-4-yl)-amide] | 100 to 500 |  | 
CCN(CC)C(=O)Nc1ccc(-c2cc(C(F)(F)F)ccc2C(F)(F)F)cc1 [Compound 131, N′,N′-diethyl-N-(2′,5′-bis-trifluoromethylbiphenyl-4-yl) urea] | < 100 |  | 500 to 1000

Now from value to compound:

IC50 [1] [nM] | IC50 (PHA, bin >1 μM) [nM] | IC50 (PHA, bin 500 nM-1 μM) [nM] | SMILES
< 100 |  |  | COc1ccc(OC)c(-c2ccc(NC(=O)c3c(F)cccc3F)cc2)c1 [Compound 125, N-(2′,5′-dimethoxy-biphenyl-4-yl)-2,6-difluoro-benzamide]
< 100 |  |  | O=C(Nc1ccc(-c2ccc(F)cc2C(F)(F)F)cc1)c1cccc(F)c1F [Compound 20, 2,3-Difluoro-N-(4′-fluoro-2′-trifluoromethyl-biphenyl-4-yl)-benzamide]
100 to 500 |  |  | O=C(Nc1ccc(-c2ccccc2C(F)(F)F)cc1)c1ccncc1F [Compound 1, 3-Fluoro-N-(2′-trifluoromethyl-biphenyl-4-yl)-isonicotinamide]
100 to 500 |  |  | O=C(Nc1ccc(-c2ccccc2C(F)(F)F)cc1)c1cnccc1C(F)(F)F [Compound 12, 4-Trifluoromethyl-N-(2′-trifluoromethyl-biphenyl-4-yl)-nicotinamide]
100 to 500 |  |  | Cc1oncc1C(=O)Nc1ccc(-c2cc(C(F)(F)F)ccc2C(F)(F)F)cc1 [Compound 51, 5-methylisoxazole-4-carboxylic acid (2′,5′-bis-trifluoromethyl-biphenyl-4-yl)-amide]
< 100 |  |  | Cc1cc(C)c(-c2ccc(NC(=O)c3cccc(F)c3F)cc2)cc1C [Compound 52, N-(2′,4′,5′-trimethyl-biphenyl-4-yl)-2,3-difluorobenzamide]
< 100 |  |  | COc1ccc(C(C)=O)cc1-c1ccc(NC(=O)c2cccc(F)c2F)cc1 [Compound 50, N-(2′-methoxy-5′-acetyl-biphenyl-4-yl)-2,3-difluorobenzamide]
100 to 500 |  |  | Cc1ccc(C)c(-c2ccc(NC(=O)c3ccncc3C)cc2)c1 [Compound 70, 3-methyl-pyridine-4-carboxylic acid (2′,5′-dimethylbiphenyl-4-yl)-amide]
 |  | 500 to 1000 | O=C(Nc1ccc(-c2cccc(C(F)(F)F)c2)cc1)c1ccncc1F [Compound 3, 3-Fluoro-N-(3′-trifluoromethyl-biphenyl-4-yl)-isonicotinamide]
< 100 |  |  | COc1cccc(C(=O)Nc2ccc(-c3cc(C(F)(F)F)ccc3C(F)(F)F)cc2)c1C [Compound 56, N-(2′,5′-bis-trifluoromethyl-biphenyl-4-yl)-2-methyl-3-methoxybenzamide]
< 100 |  |  | Cc1ccccc1C(=O)Nc1ccc(-c2cc(C(F)(F)F)ccc2C(F)(F)F)cc1 [Compound 45]
